Experimental data as given in patent US20050209278A1, “Piperidinyl- and piperazinyl-sulfonylmethyl hydroxamic acids and their use as protease inhibitors” (priority 2002, published 2005).

These compounds were tested against T1, MMP-1 (Homo sapiens, UniProt P03956) (assay: In vitro MMP inhibition, Ki determination (fluorogenic substrate II)). Conditions: value outside parentheses; read-out: MMP-1 Ki.
T1 construct: made in house; host or cells: MMP-1-transfected HT-1080 cells (spent media)
T1 sequence (P03956 100-469): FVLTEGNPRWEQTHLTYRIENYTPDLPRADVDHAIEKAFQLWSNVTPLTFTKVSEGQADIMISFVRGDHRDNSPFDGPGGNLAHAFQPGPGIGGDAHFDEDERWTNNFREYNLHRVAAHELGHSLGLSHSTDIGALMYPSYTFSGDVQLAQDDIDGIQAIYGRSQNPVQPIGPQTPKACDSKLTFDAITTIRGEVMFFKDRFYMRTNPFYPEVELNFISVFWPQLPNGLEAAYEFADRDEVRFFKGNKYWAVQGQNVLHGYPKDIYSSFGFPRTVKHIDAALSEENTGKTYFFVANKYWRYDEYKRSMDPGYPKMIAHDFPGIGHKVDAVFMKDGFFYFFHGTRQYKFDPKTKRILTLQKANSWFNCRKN
Type: biochemical

Structure (SMILES) | Ki
CCCCc1ccc(C2CCN(S(=O)(=O)C3(C(=O)NO)CCN(CCOC)CC3)CC2)nc1 [Example 397] | > 10 µM
O=C(NO)C1(S(=O)(=O)N2CCC(c3ccc(OCc4ccccc4)cn3)CC2)CCOCC1 [Example 398] | 1.95 µM
CCCC#Cc1cnc(N2CCN(S(=O)(=O)C3(C(=O)NO)CCOCC3)CC2)s1 [Example 400] | 3.32 µM
CCCCCC/C=C\C1CCN(S(=O)(=O)C2(C(=O)NO)CCOCC2)CC1 [Example 401] | > 10 µM
CCCCCC/C=C/C1CCN(S(=O)(=O)C2(C(=O)NO)CCOCC2)CC1 [Example 402] | 3.65 µM
O=C(NO)C1(S(=O)(=O)N2CCC(COCc3ccc(C(F)(F)F)cc3)CC2)CCOCC1 [Example 403] | > 10 µM
O=C(NO)C1(S(=O)(=O)N2CCC(COCc3ccc(OC(F)(F)F)cc3)CC2)CCOCC1 [Example 404] | > 10 µM
O=C(NO)C1(S(=O)(=O)N2CCC(COCc3ccc(SC(F)(F)F)cc3)CC2)CCOCC1 [Example 405] | 8.32 µM
CCCCCCCOC1CCN(S(=O)(=O)C2(C(=O)NO)CCOCC2)CC1 [Example 406] | 9.01 µM
O=C(NO)C1(S(=O)(=O)N2CCC(c3ccc(-c4cccs4)c(F)c3)CC2)CCOCC1 [Example 407] | > 10 µM
O=C(NO)C1(S(=O)(=O)N2CCC(c3ccc(N4CCCC4)cn3)CC2)CCOCC1 [Example 408] | > 10 µM
O=C(NO)C1(S(=O)(=O)N2CCC(c3ccc(-c4ccccn4)cn3)CC2)CCOCC1 [Example 409] | > 10 µM
CCCCOc1ccc(C2CCN(S(=O)(=O)C3(C(=O)NO)CCOCC3)CC2)nc1 [Example 410] | 3.49 µM
CCC(F)(F)CCc1ccc(C2CCN(S(=O)(=O)C3(C(=O)NO)CCOCC3)CC2)cn1 [Example 411] | > 10 µM
Cc1ccc(-c2csc(N3CCN(S(=O)(=O)C4(C(=O)NO)CCOCC4)CC3)n2)cc1 [Example 412] | > 10 µM
Cc1cccc(-c2csc(N3CCN(S(=O)(=O)C4(C(=O)NO)CCOCC4)CC3)n2)c1 [Example 413] | > 10 µM
O=C(NO)C1(S(=O)(=O)N2CCN(c3nc(-c4ccccc4)cs3)CC2)CCOCC1 [Example 415] | > 10 µM
Cc1ccc(-c2ccc(C3CCN(S(=O)(=O)C4(C(=O)NO)CCOCC4)CC3)nc2)s1 [Example 416] | 6.42 µM
O=C(NO)C1(S(=O)(=O)N2CCC(c3ccc(-c4cccc(F)c4)cn3)CC2)CCOCC1 [Example 417] | 1.83 µM
O=C(NO)C1(S(=O)(=O)N2CCC(c3ccc(OCCC(F)(F)F)cn3)CC2)CCOCC1 [Example 418] | 3.08 µM
O=C(NO)C1(S(=O)(=O)N2CCN(c3ccc(-c4nn[nH]n4)cc3)CC2)CCOCC1 [Example 419] | > 10 µM
CCCCc1ccc(C2(O)CCN(S(=O)(=O)C3(C(=O)NO)CCOCC3)CC2)nc1 [Example 420] | > 10 µM
